Reference: patent US12673956B2, “Oxadiazolyl dihydropyrano[2,3-b]pyridine inhibitors of HIPK2 for treating kidney fibrosis” (ICAHN SCHOOL OF MEDICINE AT MOUNT SINAI, priority 2021, dated 2026)
Where two headings read alike, the source gives them in different places.

System: TGF/SMAD Signaling Pathway SBE Reporter—HEK293 Cell Line
Test: Luciferase screen, TGF/SMAD SBE reporter HEK293 cells stimulated with TGFβ
Format: cell-based
Conditions: Homo sapiens
Description: For the data in Table 1, the Bight-Glo™ Luciferase Assay System from Promega was used with TGF/SMAD Signaling Pathway SBE Reporter—HEK293 Cell Line from BPSbioscience. On day 1 SBE reporter-HEK293 cells were seeded at a density of 25,000 cells per well into a white clear-bottom 96-well microplate in 100 μl of growth medium without geneticin. The plate was incubated at 37° C. in a CO2 incubator for 24 hrs. The wells were renewed with 60 μL assay medium and treated with test compounds by adding 5 μL of compounds in medium. The concentration of test compound in medium is adjusted so that 5 μL will provide the desired molarity of the solution. For example, if the desired test concentration is 30 µM, then 5 μL of […] compound is added. After 4 hours, TGFβ was added to 10 ng/mL. The plate was incubated at 37° C. in a CO2 incubator overnight (18 hours). One hour prior to assay all medium was replaced. The luciferase assay was run using ONE-Step™ Luciferase Assay System by adding 100 al of ONE-Step™ Luciferase reagent per well, rocking at room temperature for ~15 to 30 minutes and measuring luminescence using a luminometer. The signals were normalized to percentage inhibition, with non-TGF treated cells as 100% inhibition, and the data were processed by Graphpad Prism.

[1] = SBE reporter-HEK293 cells, TGFβ 10 ng/mL, 18 hours, read-out: Luciferase IC50
[2] = HEK293, 18 h, read-out: Luciferase IC50 nM

Structure (SMILES) | IC50 [1] [nM] | IC50 [2] [nM]
CC1(C)C[C@@H](O)c2cc(-c3nc(-c4ccc(Br)cc4)no3)cnc2O1 (single isomer, unassigned) [Example 10] | 233 | –
CC1(C)C[C@H](O)c2cc(-c3nc(-c4ccc(Br)cc4)no3)cnc2O1 (single isomer, unassigned) [Example 11] | 57 | –
CC1(C)Oc2ncc(-c3nc(-c4ccc(Cl)cc4)no3)cc2CC1O (stereo in doubt) [Example 12, (R)-6-(3-(4-chlorophenyl)-1,2,4-oxadiazol-5-yl)-2,2-dimethyl-3,4-dihydro-2H-pyrano[2,3-b]pyridin-3-ol] | 89 | –
CC1(C)Oc2ncc(-c3nc(-c4nccs4)no3)cc2CC1O (stereo in doubt) [Example 14, (R)-2,2-dimethyl-6-(3-(thiazol-2-yl)-1,2,4-oxadiazol-5-yl)-3,4-dihydro-2H-pyrano[2,3-b]pyridin-3-ol] | 1370 | –
CC1(C)Oc2ncc(-c3nc(-c4nccs4)no3)cc2CC1O (stereo in doubt) [Example 16, (S)-2,2-dimethyl-6-(3-(thiazol-2-yl)-1,2,4-oxadiazol-5-yl)-3,4-dihydro-2H-pyrano[2,3-b]pyridin-3-ol] | 1110 | –
CC1(C)Oc2ncc(-c3nc(-c4ccc(Cl)c(F)c4)no3)cc2CC1O (stereo in doubt) [Example 35, (S)-6-(3-(4-chloro-3-fluorophenyl)-1,2,4-oxadiazol-5-yl)-2,2-dimethyl-3,4-dihydro-2H-pyrano[2,3-b]pyridin-3-ol] | – | 22
CC1(C)Oc2ncc(-c3nc(-c4ccc(Br)cc4)no3)cc2CC1O (stereo not shown) [Example 1, 6-(3-(4-bromophenyl)-1,2,4-oxadiazol-5-yl)-2,2-dimethyl-3,4-dihydro-2H-pyrano[2,3-b]pyridin-3-ol] | – | 43
CC1(C)Oc2ncc(-c3nc(-c4ccc(Br)cc4)no3)cc2C(N)C1O (stereo not shown) [Example 2, 4-amino-6-(3-(4-bromophenyl)-1,2,4-oxadiazol-5-yl)-2,2-dimethyl-3,4-dihydro-2H-pyrano[2,3-b]pyridin-3-ol] | – | 8150
C[C@H]1CCc2cc(-c3nc(-c4ccc(Br)cc4)no3)cnc2O1 [Example 3] | 234 | –
C[C@@H]1CCc2cc(-c3nc(-c4ccc(Br)cc4)no3)cnc2O1 [Example 4, ethyl (R)-6-(3-(4-bromophenyl)-1,2,4-oxadiazol-5-yl)-2-methyl-3,4-dihydro-2H-pyrano[2,3-b]pyridine] | 126 | –
CC1(C)CC(O)c2cc(-c3nc(-c4ccc(Br)cc4)no3)cnc2O1 (stereo not shown) [Example 5, 6-(3-(4-bromophenyl)-1,2,4-oxadiazol-5-yl)-2,2-dimethyl-3,4-dihydro-2H-pyrano[2,3-b]pyridin-4-ol] | 86 | –
CC1(C)Oc2ncc(-c3nc(-c4ccc(Br)cc4)no3)cc2C[C@H]1O [Example 6, (R)-6-(3-(4-bromophenyl)-1,2,4-oxadiazol-5-yl)-2,2-dimethyl-3,4-dihydro-2H-pyrano[2,3-b]pyridin-3-ol] | – | 27
CC1(C)Oc2ncc(-c3nc(-c4ccc(Br)cc4)no3)cc2C[C@@H]1O [Example 7, (S)-6-(3-(4-bromophenyl)-1,2,4-oxadiazol-5-yl)-2,2-dimethyl-3,4-dihydro-2H-pyrano[2,3-b]pyridin-3-ol] | – | 37
CC1(C)Oc2ncc(-c3nc(-c4ccc(Br)cc4)no3)cc2[C@H](O)[C@H]1O [Example 8, (3R,4S)-6-(3-(4-bromophenyl)-1,2,4-oxadiazol-5-yl)-2,2-dimethyl-3,4-dihydro-2H-pyrano[2,3-b]pyridine-3,4-diol] | – | 11300
CC1(C)Oc2ncc(-c3nc(-c4ccc(Br)cc4)no3)cc2[C@@H](O)[C@@H]1O [Example 9, (3S,4R)-6-(3-(4-bromophenyl)-1,2,4-oxadiazol-5-yl)-2,2-dimethyl-3,4-dihydro-2H-pyrano[2,3-b]pyridine-3,4-diol] | – | 2420
Cn1ccc(-c2noc(-c3cnc4c(c3)C[C@@H](O)C(C)(C)O4)n2)n1 [Example 17, (R)-2,2-dimethyl-6-(3-(1-methyl-1H-pyrazol-3-yl)-1,2,4-oxadiazol-5-yl)-3,4-dihydro-2H-pyrano[2,3-b]pyridin-3-ol] | 18 | –
Cn1ccc(-c2noc(-c3cnc4c(c3)C[C@H](O)C(C)(C)O4)n2)n1 [Example 18, (S)-2,2-dimethyl-6-(3-(1-methyl-1H-pyrazol-3-yl)-1,2,4-oxadiazol-5-yl)-3,4-dihydro-2H-pyrano[2,3-b]pyridin-3-ol] | 28 | –
CO[C@H]1Cc2cc(-c3nc(-c4ccc(Cl)cc4)no3)cnc2OC1(C)C [Example 19, (S)-6-(3-(4-chlorophenyl)-1,2,4-oxadiazol-5-yl)-3-methoxy-2,2-dimethyl-3,4-dihydro-2H-pyrano[2,3-b]pyridine] | 340 | –
CC1(C)Oc2ncc(-c3nc(-c4ccc(F)cc4)no3)cc2C[C@@H]1O [Example 20, (S)-6-(3-(4-fluorophenyl)-1,2,4-oxadiazol-5-yl)-2,2-dimethyl-3,4-dihydro-2H-pyrano[2,3-b]pyridin-3-ol] | 223 | –
Cc1ccc(-c2noc(-c3cnc4c(c3)C[C@H](O)C(C)(C)O4)n2)cc1 [Example 21, (S)-2,2-dimethyl-6-(3-p-tolyl-1,2,4-oxadiazol-5-yl)-3,4-dihydro-2H-pyrano[2,3-b]pyridin-3-ol] | – | 17
CC1(C)Oc2ncc(-c3nc(-c4ccc(Cl)c(Cl)c4)no3)cc2C[C@@H]1O [Example 22, (S)-6-(3-(3,4-dichlorophenyl)-1,2,4-oxadiazol-5-yl)-2,2-dimethyl-3,4-dihydro-2H-pyrano[2,3-b]pyridin-3-ol] | – | 43
CC1(C)Oc2ncc(-c3nc(-c4ncc(Cl)s4)no3)cc2C[C@@H]1O [Example 23, (S)-6-(3-(5-chlorothiazol-2-yl)-1,2,4-oxadiazol-5-yl)-2,2-dimethyl-3,4-dihydro-2H-pyrano[2,3-b]pyridin-3-ol] | 242 | –
Cc1cnc(-c2noc(-c3cnc4c(c3)C[C@H](O)C(C)(C)O4)n2)s1 [Example 24, (S)-2,2-dimethyl-6-(3-(5-methylthiazol-2-yl)-1,2,4-oxadiazol-5-yl)-3,4-dihydro-2H-pyrano[2,3-b]pyridin-3-ol] | 822 | –
CC1(C)Oc2ncc(-c3nc(-c4ncc(Cl)s4)no3)cc2C[C@H]1O [Example 25, (R)-6-(3-(5-chlorothiazol-2-yl)-1,2,4-oxadiazol-5-yl)-2,2-dimethyl-3,4-dihydro-2H-pyrano[2,3-b]pyridin-3-ol] | 206 | –
Cc1cnc(-c2noc(-c3cnc4c(c3)C[C@@H](O)C(C)(C)O4)n2)s1 [Example 26, (R)-2,2-dimethyl-6-(3-(5-methylthiazol-2-yl)-1,2,4-oxadiazol-5-yl)-3,4-dihydro-2H-pyrano[2,3-b]pyridin-3-ol] | 708 | –
CC1(C)Oc2ncc(-c3nc(-c4nc(Cl)cs4)no3)cc2C[C@H]1O [Example 27, (R)-6-(3-(4-chlorothiazol-2-yl)-1,2,4-oxadiazol-5-yl)-2,2-dimethyl-3,4-dihydro-2H-pyrano[2,3-b]pyridin-3-ol] | 705 | –
CC1(C)Oc2ncc(-c3nc(-c4nc(Cl)cs4)no3)cc2C[C@@H]1O [Example 28, (S)-6-(3-(4-chlorothiazol-2-yl)-1,2,4-oxadiazol-5-yl)-2,2-dimethyl-3,4-dihydro-2H-pyrano[2,3-b]pyridin-3-ol] | – | 13
CCn1ccc(-c2noc(-c3cnc4c(c3)C[C@@H](O)C(C)(C)O4)n2)n1 [Example 29, (R)-6-(3-(1-ethyl-1H-pyrazol-3-yl)-1,2,4-oxadiazol-5-yl)-2,2-dimethyl-3,4-dihydro-2H-pyrano[2,3-b]pyridin-3-ol] | – | 56
